{
  "source": "patent USRE42748E1",
  "about": "“Oral DTPA for radionuclide chelation” (priority 2006, dated 2011)",
  "key": {"[1]": {"system": "harvested rat small intestinal segments: Jejunum", "assay": "Ussing chamber mucosal to serosal transport across rat jejunum", "format": "in vitro ADME", "method": "(§1) The primary objective of these in vitro studies was to determine a formulation containing permeation enhancers/other additives that achieved maximum transport of DTPA from mucosal to serosal side of the intestine. The mucosal to serosal absorption of DTPA (Zinc/Calcium) was measured in vitro across harvested rat intestinal segments and colon, in an EasyMount Ussing System (Physiological Instruments Inc., CA, Item #EM-CSYS-8). The Ussing chamber consists of two diffusion chambers, a heating block for temperature control, needle valves for gas flow adjustment and gas lift stirring, and Ag/AgCl voltage and current electrodes for measuring transepithelial voltage and for passing current. Representative sections of the harvested rat small intestinal segments (jejunum, duodenum, and ileum) and the rat colon were mounted on sliders placed between the chambers, and DTPA (Zinc/Calcium) transport across the sections was monitored. Aliquots of sample solution were removed from the ‘serosal’ side at 30 min intervals and analyzed by high performance liquid chromatography (HPLC). The change in mucosal to serosal transport of DTPA (Zinc/Calcium) in the presence of different permeation enhancers was determined.\nZn-DTPA and Ca-DTPA was dissolved in HEPES buffer (VWR, Brisbane, Calif.), with or without additives, at the predetermined drug concentrations. HEPES buffer was used as the base mucosal and serosal fluid. Before initiating the experiment, 5 ml of HEPES buffer was added to each of the two chambers (mucosal and serosal) and was allowed to equilibrate for 20 min. Next, the mucosal buffer was replaced by the appropriate formulation to be tested and the experiment was initiated. Aliquots (0.5 ml) were collected from the serosal side and were replaced with an equivalent amount of fresh HEPES buffer (maintained at physiological temperature). The aliquotted samples from the serosal side were analyzed by HPLC.\nOwing to the expected variation in the in vitro conditions and harvested rat intestinal segments, five replicates were used per experimental condition. In order to compare data obtained from the different experiments, the apparent permeability coefficients (Papp) were calculated according to:\n[formula] Where, dQ/dt is the linear appearance rate of mass in receiver compartment, C0 is the initial solute concentration in donor compartment, and A is the surface area. The higher the Papp value, the better the permeation property. The similarity of the Papp values indicates similar behavior for the two DTPA compounds.\nWe then evaluated transport of Zn-DTPA and Ca-DTPA through jejunum segments with and without Labrasol.\nWe then tested the transport of 100 mg/ml DTPA in HEPES buffer with and without added enhancers across jejunum segments; results are in Table 3."}, "[2]": {"system": "rat colon", "assay": "Ussing chamber mucosal to serosal transport across rat colon", "format": "in vitro ADME", "conditions": "5 mg/ml of DTPA in HEPES Buffer", "method": "as §1\n(§2) Zn-DTPA and Ca-DTPA was dissolved in HEPES buffer (VWR, Brisbane, Calif.), with or without additives, at the predetermined drug concentrations. […]"}, "[3]": {"assay": "Bioavailability study after liquid dose of radiolabeled DTPA (14C) in male Sprague-Dawley rats (SRI Study B230-06)", "format": "in vivo", "conditions": "for AUC0→last Mean ± SD / AUC0→last: 16.38 mg-equiv DTPA/Kg", "method": "The objective of this study was to determine the oral bioavailability of Ca-DTPA using radioactive ^14C-DTPA tracer for detection in male Sprague Dawley rats after oral administration in several different formulations. After oral gavage of Ca-DTPA or DTPA (free acid) in sterile water, the oral bioavailability of DTPA is estimated to be about 7% in these two treatment groups. […] In Group 7, which also was administered DTPA in 20% Labrasol (+Quinidine pretreatment), the mean bioavailability was 10%, but this group had greater interindividual variability than seen in the other treatment groups."}, "[4]": {"system": "harvested rat small intestinal segments: Ileum", "assay": "Ussing chamber mucosal to serosal transport across rat ileum", "format": "in vitro ADME", "conditions": "5 mg/ml of DTPA in HEPES Buffer", "method": "as §1, §2"}, "[5]": {"system": "harvested rat small intestinal segments: Duodenum", "assay": "Ussing chamber mucosal to serosal transport across rat duodenum", "format": "in vitro ADME", "conditions": "5 mg/ml of DTPA in HEPES Buffer", "method": "as §1, §2"}},
  "note": "Several values for one entry are separate records, joined by “and”; a condition that tells them apart may be missing. Equal entries are not always repeated.",
  "data": [
    {"smiles": "O=C([O-])CN(CCN(CC(=O)[O-])CC(=O)[O-])CCN(CC(=O)[O-])CC(=O)[O-].[Ca+2].[Na+].[Na+].[Na+]", "note": "[Ca-DTPA, calcium diethylenetriaminepentaacetate]", "values": [
      {"measurement": "Papp", "setting": "[1]; Jejunum, 5 mg/ml of drug in HEPES Buffer", "value": 38.4, "unit": "nm/s"},
      {"measurement": "Papp", "setting": "[1]; jejunum, 5 mg/ml of drug in HEPES Buffer containing 10% Labrasol", "value": 28.4, "unit": "nm/s"},
      {"measurement": "Papp", "setting": "[1]; jejunum, 5 mg/ml of drug in HEPES Buffer containing 20% Labrasol", "value": 34.8, "unit": "nm/s"},
      {"measurement": "Papp", "setting": "[1]; jejunum, 5 mg/ml of drug in HEPES Buffer containing 40% Labrasol", "value": 135.1, "unit": "nm/s"},
      {"measurement": "Papp", "setting": "[1]; jejunum, 100 mg/ml DTPA in HEPES buffer, 5% Gelucire 44/14 + 5% Labrasol", "value": 72.7, "unit": "nm/s"},
      {"measurement": "Papp", "setting": "[1]; jejunum, 100 mg/ml DTPA in HEPES buffer, 5% TPGS + 5% Labrasol", "value": 140.4, "unit": "nm/s"},
      {"measurement": "Papp", "setting": "[1]; jejunum, 100 mg/ml DTPA in HEPES buffer, 5% TPGS + 20% Labrasol", "value": 78.5, "unit": "nm/s"},
      {"measurement": "Papp", "setting": "[1]; jejunum, 100 mg/ml DTPA in HEPES buffer, 5% Tween 80 + 5% Capmul PG-8", "value": 36.1, "unit": "nm/s"},
      {"measurement": "Papp", "setting": "[1]; jejunum, 100 mg/ml DTPA in HEPES buffer, 5% Tween 80 + 5% Labrasol", "value": 116.1, "unit": "nm/s"},
      {"measurement": "Papp", "setting": "[1]; jejunum, 100 mg/ml DTPA in HEPES buffer, 5% Tween 80 and 5% Caproyl PGMC", "value": 27.5, "unit": "nm/s"},
      {"measurement": "Papp", "setting": "[1]; jejunum, 100 mg/ml DTPA in HEPES buffer, 5% Tween 80 and 5% Labrafil", "value": 28.3, "unit": "nm/s"},
      {"measurement": "Papp", "setting": "[1]; jejunum, 100 mg/ml DTPA in HEPES buffer, 10% Gelucire 44/14", "value": 65.7, "unit": "nm/s"},
      {"measurement": "Papp", "setting": "[1]; jejunum, 100 mg/ml DTPA in HEPES buffer, 10% Tween 80", "value": 54.3, "unit": "nm/s"},
      {"measurement": "Papp", "setting": "[1]; jejunum, 100 mg/ml DTPA in HEPES buffer, 20% Bile Salt", "value": 126.5, "unit": "nm/s"},
      {"measurement": "Papp", "setting": "[1]; jejunum, 100 mg/ml of drug in HEPES Buffer containing 10% Labrasol", "value": 62.9, "unit": "nm/s"},
      {"measurement": "Papp", "setting": "[1]; jejunum, 100 mg/ml of drug in HEPES Buffer containing 20% Labrasol", "value": 117.6, "unit": "nm/s"},
      {"measurement": "Papp", "setting": "[1]; jejunum, 100 mg/ml of drug in HEPES Buffer only", "value": 46.3, "unit": "nm/s"},
      {"measurement": "Papp", "setting": "[2]", "value": 32.2, "unit": "nm/s"},
      {"measurement": "% Bioavailability", "setting": "[3]; Group 1 IV, saline (reference)", "value": 100, "unit": "%"},
      {"measurement": "% Bioavailability Mean ± SD", "setting": "[3]; Group 1 IV, saline (reference)", "value": 100.00, "unit": "%"},
      {"measurement": "AUC0→last Mean ± SD", "setting": "[3]; Group 1 IV, saline, last time point 3 hr", "value": "17.73 ± 0.63 Hr * ( ng/ml)"},
      {"measurement": "AUC0→last", "setting": "[3]; Group 1 IV, saline, last time point 3 hr, individual rats", "value": "17.3934 Hr * ( ng/ml) and 17.34 Hr * ( ng/ml) and 18.4585 Hr * ( ng/ml)"},
      {"measurement": "AUC0→last Mean ± SD", "setting": "[3]; Group 2 Oral, water, 6 hr", "value": "1.22 ± 0.05 Hr * ( ng/ml)"},
      {"measurement": "AUC0→last", "setting": "[3]; Group 2 Oral, water, last time point 6 hr, individual rats", "value": "1.2411 Hr * ( ng/ml) and 1.1632 Hr * ( ng/ml) and 1.2516 Hr * ( ng/ml)"},
      {"measurement": "% Bioavailability", "setting": "[3]; Group 2 Oral, water, individual rats", "value": "7.00% and 6.56% and 7.06%"},
      {"measurement": "% Bioavailability Mean ± SD", "setting": "[3]; Group 4 Oral, 20% Labrasol", "value": "12.14 ± 2.29", "unit": "%"},
      {"measurement": "AUC0→last Mean ± SD", "setting": "[3]; Group 4 Oral, 20% Labrasol, 6 hr", "value": "2.15 ± 0.41 Hr * ( ng/ml)"},
      {"measurement": "AUC0→last", "setting": "[3]; Group 4 Oral, 20% Labrasol, last time point 6 hr, individual rats", "value": "1.6901 Hr * ( ng/ml) and 2.3145 Hr * ( ng/ml) and 2.4507 Hr * ( ng/ml)"},
      {"measurement": "% Bioavailability", "setting": "[3]; Group 4 Oral, 20% Labrasol, individual rats", "value": "9.53% and 13.05% and 13.82%"},
      {"measurement": "% Bioavailability Mean ± SD", "setting": "[3]; Group 5 Oral, 5% Labrasol", "value": "7.12 ± 1.37", "unit": "%"},
      {"measurement": "AUC0→last Mean ± SD", "setting": "[3]; Group 5 Oral, 5% Labrasol, 6 hr", "value": "1.26 ± 0.24 Hr * ( ng/ml)"},
      {"measurement": "AUC0→last", "setting": "[3]; Group 5 Oral, 5% Labrasol, last time point 6 hr, individual rats", "value": "1.4714 Hr * ( ng/ml) and 0.9971 Hr * ( ng/ml) and 1.3181 Hr * ( ng/ml)"},
      {"measurement": "% Bioavailability", "setting": "[3]; Group 5 Oral, 5% Labrasol, individual rats", "value": "8.30% and 5.62% and 7.43%"},
      {"measurement": "% Bioavailability Mean ± SD", "setting": "[3]; Group 6 Oral, 5% TPGS + 5% Labrasol", "value": "7.909 ± 0.84", "unit": "%"},
      {"measurement": "AUC0→last Mean ± SD", "setting": "[3]; Group 6 Oral, 5% TPGS + 5% Labrasol, 6 hr", "value": "1.40 ± 0.15 Hr * ( ng/ml)"},
      {"measurement": "AUC0→last", "setting": "[3]; Group 6 Oral, 5% TPGS + 5% Labrasol, last time point 6 hr, individual rats", "value": "1.3506 Hr * ( ng/ml) and 1.284 Hr * ( ng/ml) and 1.5688 Hr * ( ng/ml)"},
      {"measurement": "% Bioavailability", "setting": "[3]; Group 6 Oral, 5% TPGS + 5% Labrasol, individual rats", "value": "7.62% and 7.24% and 8.85%"},
      {"measurement": "AUC0→last Mean ± SD", "setting": "[3]; Group 7 Oral, 0.15 mM Quinidine 20 min before, then 20% Labrasol, 6 hr", "value": "1.81 ± 1.39 Hr * ( ng/ml)"},
      {"measurement": "AUC0→last", "setting": "[3]; Group 7 Oral, 0.15 mM Quinidine 20 min before, then 20% Labrasol, last time point 6 hr, individual rats", "value": "3.3876 Hr * ( ng/ml) and 1.2912 Hr * ( ng/ml) and 0.7655 Hr * ( ng/ml)"},
      {"measurement": "% Bioavailability Mean ± SD", "setting": "[3]; Group 7 Oral, 0.15 mM Quinidine pretreatment then 20% Labrasol", "value": "10.23 ± 7.82", "unit": "%"},
      {"measurement": "% Bioavailability", "setting": "[3]; Group 7 Oral, 0.15 mM Quinidine pretreatment then 20% Labrasol, individual rats", "value": "19.10% and 7.28% and 4.32%"},
      {"measurement": "Papp", "setting": "[4]", "value": 28, "unit": "nm/s"},
      {"measurement": "Papp", "setting": "[5]", "value": 17.1, "unit": "nm/s"}
    ]}
  ]
}
